From patent publication US4883821A, “Agent for treating hyperuricemia” (Eisai Co., Ltd., priority 1988, dated 1989)
Values joined by “and” are separate entries in the source; they are usually repeats but may differ in a detail not shown here. Identical values can stand only once.

Experiments:
uric acid level in serum = assay: phase I clinical test: uric acid level in serum of healthy adult men (enzymatic method); type: in vivo
Protocol: Capsules containing 300 mg of the compound of the present invention, N-{3-[4"-(2",6"-dimethylheptyl)phenyl]butanoyl}ethanolamine, were administered to 5 healthy adult men for 7 days three times per day after meals. For comparison, a placebo was administered to two other healthy adult men. Thus, the phase I clinical test was conducted.
[…] With respect to the measured values, the significance test was conducted between the group to which the compound of the present invention was administered and the group to which the placebo was administered.
In the above table, each value indicates the uric acid level (mg/dl) in serum, and A through G in the column of "Healthy man" represent the adult men to whom the medicine was administered.

[1] = acute toxicity test in rats; type: in vivo; conditions: rat, in vivo
Protocol: (§1) The acute toxicity test was carried out by oral, intraperitoneal and subcutaneous administration to 7- to 8-week old Sic-SD rats and Slc:ICr mice. The case of death was observed within 5 days from the start of the administration.

Sic-SD rats = assay: acute toxicity test in rats; type: in vivo; conditions: oral, intraperitoneal and subcutaneous
Protocol: as §1

[2] = acute toxicity test in mice; conditions: mouse, in vivo
Protocol: as §1

[3] = disclosed in Japanese Patent Laid-Open No. 210050/1986; cited from earlier work
[4] = clinical use, prior art; cited from earlier work

CC(C)CCCC(C)Cc1ccc(C(C)CC(=O)NCCO)cc1 (stereo not drawn) [compound of the present invention, N-{3-[4'-(2",6"-dimethylheptyl)phenyl]butanoyl}ethanolamine]
accumulation of the medicinal effect (uric acid level in serum; after stop of administration): not observed | uric acid level in serum when administration was stopped (uric acid level in serum; after stop of administration): promptly elevated to the value before the start of the administration | average uric acid level in serum, 1st day (uric acid level in serum; average of men A-E, 1st day, before administration, placebo average 6.0): 5.8 mg/dL | average uric acid level in serum, 4th day (uric acid level in serum; average of men A-E, 4th day, 300 mg three times per day, marked *, placebo average 5.7): 3.1 mg/dL | average uric acid level in serum, 6th day (uric acid level in serum; average of men A-E, 6th day, 300 mg three times per day, marked *, placebo average 5.7): 2.7 mg/dL | average uric acid level in serum, 8th day (uric acid level in serum; average of men A-E, 8th day, 300 mg three times per day for 7 days, marked *, placebo average 5.8): 3.2 mg/dL | average uric acid level in serum, 11th day (uric acid level in serum; average of men A-E, 11th day, after 7 days of administration, placebo average 7.1): 5.5 mg/dL | lowering in the uric acid level in serum (uric acid level in serum; fourth day): significant lowering in the uric acid level in serum was observed | uric acid level in serum, 1st day (uric acid level in serum; individual healthy men A-E (one per line), 1st day, before administration, 300 mg capsules three times per day after meals, 7 days, listed as compound of present invention): 4.9 mg/dL and 6.4 mg/dL and 5.9 mg/dL and 7.0 mg/dL and 4.7 mg/dL | uric acid level in serum, 4th day (uric acid level in serum; individual healthy men A-E (one per line), 4th day, 300 mg capsules three times per day after meals, 7 days, listed as compound of present invention): 8.5 mg/dL and 2.9 mg/dL and 2.6 mg/dL and 3.6 mg/dL and 2.8 mg/dL | uric acid level in serum, 6th day (uric acid level in serum; individual healthy men A-E (one per line), 6th day, 300 mg capsules three times per day after meals, 7 days, listed as compound of present invention): 3.0 mg/dL and 2.6 mg/dL and 2.4 mg/dL and 3.2 mg/dL and 2.5 mg/dL | uric acid level in serum, 8th day (uric acid level in serum; individual healthy men A-E (one per line), 8th day, 300 mg capsules three times per day after meals, 7 days, listed as compound of present invention): 3.2 mg/dL and 3.1 mg/dL and 4.0 mg/dL and 2.7 mg/dL | uric acid level in serum, 11th day (uric acid level in serum; individual healthy men A-E (one per line), 11th day, after 7 days of 300 mg capsules three times per day after meals, listed as compound of present invention): 4.8 mg/dL and 5.6 mg/dL and 7.2 mg/dL and 5.3 mg/dL | LD50 ([1]; ip, female, intraperitoneal): 572 mg/kg | LD50 ([1]; ip, male, intraperitoneal): 1340 mg/kg | LD50 ([1]; po, female): 1910 mg/kg | LD50 ([1]; po, male): 4260 mg/kg | LD50 ([1]; sc, female, subcutaneous): 6350 mg/kg | LD50 ([1]; sc, male, subcutaneous): > 8000 mg/kg | time of death from the start of the administration (Sic-SD rats): ≤ 5 days | LD50 ([2]; ip, female, intraperitoneal): 737 mg/kg | LD50 ([2]; ip, male, intraperitoneal): 792 mg/kg | LD50 ([2]; po, female): 4580 mg/kg | LD50 ([2]; po, male): > 2560 mg/kg | LD50 ([2]; sc, female, subcutaneous): > 5000 mg/kg | LD50 ([2]; sc, male, subcutaneous): > 5000 mg/kg | anticholesterolemic action [3]: has an anticholesterolemic action | solubility in organic solvents (solubility; anhydrous ethanol, ethyl acetate, ethanol, chloroform, acetonitrile and n-hexane): Highly soluble | solubility in water (solubility; water): substantially insoluble

Oc1ncnc2[nH]ncc12 [allopurinol]
adverse effects [4]: causes efflorescence, gastrointestinal disorders, liver troubles and hematogenic organ troubles
